According to patent US6818646B2 (priority 2000, dated 2004):
Counter-ions that a name gives are not always drawn.

The compounds below were run against T1, PDEV (Homo sapiens, UniProt O76074) (assay: In vitro determination of Ki for phosphodiesterase inhibitors). Conditions: human tissue; given as 'Ki ='.
T1 construct: PDEV was isolated from rabbit and human tissues according to the protocol described by Boolell et al; from tissue; host or cells: human tissue, homogenate supernatant fractionated on Mono Q
Assay type: biochemical
Description: The assays were adapted to a 96-well format. Phosphodiesterase was assayed in 5 mM MgCl2, 15 mM Tris HCl (pH 7.4), 0.5 mg/ml bovine serum albumin, 30 nM ^3H-cGMP and test compound at various concentrations. The amount of enzyme used for each reaction was such that less than 15% of the initial substrate was converted during the assay period. For all measurements, the test compound was dissolved and diluted in 100% DMSO (2% DMSO in assay). The total volume of the assay was 100 μl. The reaction mixture was incubated at 30° C. for 90 minutes. The reaction was stopped by boiling for 1 minute and then immediately cooled by transfer to an ice bath. To each well was then added 25 μl 1 mg/ml snake venom (Ophiophagus hannah) and the reaction mixture incubating at 30° C. for 10 minute. The reaction was stopped by the addition of 1 ml Bio-Rad AG1-X2 resin slurry (1:3). An aliquot of 200 μl was taken and counted by liquid scintillation.
(§1) The % inhibition of the maximum substrate conversion (by the enzyme in the absence of inhibitor) was calculated for each test compound concentration. Using GraphPad Prism's nonlinear regression analysis (sigmoidal dose response), the % inhibition vs log of the test compound concentration was plotted to determine the IC50. Under conditions where substrate concentration <<Km of the enzyme (Km=substrate concentration at which half of the maximal velocity of the enzyme is achieved), Ki is equivalent to the IC50 value.
(§2) Unless otherwise noted, PDEV inhibitory activities were measured using human tissue. The abbreviation “stereo” refers to the stereogenic configuration, the abbreviation “Rac” shall denote a racemic mixture.

Row | Compound | Ki
1 | Oc1c2c(nc3ccccc13)C(c1ccc3c(c1)CCO3)N(c1ccc(-c3ccccn3)cn1)C2 (racemic) [Compound 134, 2-[2,3′]Bipyridinyl-6′-yl-3-(2,3-dihydro-benzofuran-5-yl)-1,2,3,4-tetrahydro-pyrrolo[3,4-b]quinolin-9-one] | 1.1 nM
2 | O=c1c2c([nH]c3ccccc13)C(c1ccc3c(c1)CCO3)N(c1ccccn1)C2 (racemic) [Compound 129, 3-(2,3-Dihydro-benzofuran-5-yl)-2-pyridin-2-yl-1,2,3,4-tetrahydro-pyrrolo[3,4-b]quinolin-9-one] | 0.65 nM
3 | O=c1c2c([nH]c3ccccc13)C(c1ccc3c(c1)CCO3)N(c1ccccn1)C2 (centres unmarked) [Compound 136, 3-(2,3-Dihydro-benzofuran-5-yl)-2-pyridin-2-yl-1,2,3,4-tetrahydro-pyrrolo[3,4-b]quinolin-9-one] | 0.18 nM
4 | Oc1c2c(nc3ccccc13)C(c1ccc3occc3c1)N(c1ncc(-c3ccccn3)cn1)C2 (racemic) [Compound 126, 3-Benzofuran-5-yl-2-(5-pyridin-2-yl-pyrimidin-2-yl)-1,2,3,4-tetrahydro-pyrrolo[3,4-b]quinolin-9-one] | 0.138 nM
5 | Cc1ncc(-c2cnc(N3Cc4c([nH]c5ccccc5c4=O)C3c3ccc4c(c3)CCO4)nc2)n1C (stereo not drawn) [Compound 128, 3-(2,3-Dihydro-benzofuran-5-yl)-2-[5-(2,3-dimethyl-3H-imidazol-4-yl)-pyrimidin-2-yl]-1,2,3,4-tetrahydro-pyrrolo[3,4-β]quinolin-9-one] | 0.3 nM
6 | Cc1ncc(-c2cnc(N3Cc4c(nc5ccccc5c4O)C3c3ccc4c(c3)CCO4)nc2)n1Cc1ccccc1 (racemic) [Compound 127, 2-[5-(3-Benzyl-2-methyl-3H-imidazol-4-yl)-pyrimidin-2-yl]-3-(2,3-dihydro-benzofuran-5-yl)-1,2,3,4-tetrahydro-pyrrolo[3,4-b]quinolin-9-one] | 0.14 nM
7 | O=c1c2c([nH]c3ccccc13)C(c1ccc3c(c1)CCO3)N(c1ncc(-c3cccc[n+]3[O-])cn1)C2 (centres unmarked) [Compound 125, 3-(2,3-Dihydro-benzofuran-5-yl)-2-[5-(1-oxy-pyridin-2-yl)-pyrimidin-2-yl]-1,2,3,4-tetrahydro-pyrrolo[3,4-b]quinolin-9-one] | 0.144 nM

What follows are compounds tested against PDEV (Oryctolagus cuniculus, UniProt G1SX67) (assay: PDE assay: inhibition of PDEV isolated from rabbit tissue). Conditions: PDEV inhibitory activity, rabbit tissue (footnote a).
Assay type: biochemical
Description: (§3) Briefly, rabbit or human tissues were homogenized in an ice-cold buffer solution containing 20 mM HEPES (pH 7.2), 0.25M sucrose, 1 mM EDTA, and 1 mM phenylmethylsulphonyl fluoride (PMSF). The homogenates were centrifuged at 100,000 g for 60 minutes at 4° C. The supernatant was filtered through […] filter and loaded on a Pharmacia Mono Q anion exchange column (1 ml bed volume) that was equilibrated with 20 mM HEPES, 1 mM EDTA and 0.5 mM PMSF. After washing out unbound proteins, the enzymes were eluted with a linear gradient of 100-600 mM NaCl in the same buffer (35 to 50 ml total, depending on the tissue. Enzymes from the skeletal muscle, corpus cavernosum, retina, heart and platelet were eluted with 35, 40, 45, 50, and 50 ml respectively.) The column was run at a flow rate of 1 ml/min and 1 ml fractions were collected. The fractions comprising various PDE activities were pooled separately and used in later studies.
(§4) The assays were adapted to a 96-well format. The enzyme was assayed in 5 mM MgCl2, 15 mM Tris HCl (pH 7.4), 0.5 mg/ml bovine serum albumin, 1 μM cGMP or cAMP, 0.1 μCi [^3H]-cGMP or [^3H]-cAMP, and 2-10 μl of column elution. The total volume of the assay was 100 μl. The reaction mixture was incubated at 30° C. for 30 minutes. The reaction was stopped by boiling for 1 minute and then cooled down on ice. The resulting [^3H]5′-mononucleotides were further converted to uncharged [^3H]-nucleosides by adding 25 μl 1 mg/ml snake venom (Ophiophagus hannah) and incubating at 30° C. for 10 minute. The reaction was stopped by the addition of 1 ml Bio-Rad AG1-X2 resin slurry (1:3). All the charged nucleotides were bound by the resin and only uncharged [^3H]-nucleosides remained in the supernatant after centrifuging. An aliquot of 200 μl was taken and counted by liquid scintillation. PDE activity was expressed as pmol cyclic nucleotide hydrolyzed/min/ml of enzyme preparation.
(§5) Inhibitor studies were carried out in assay buffer with a final concentration of 10% DMSO.
as §1, §2

Row | Compound | IC50
8 | COc1ccc(-c2cnc(N3Cc4c([nH]c5ccccc5c4=O)[C@@H]3c3ccc4c(c3)OCO4)nc2)cc1OC [Compound 35, (S)-1,2,3,4-Tetrahydro-2-[5-(3,4-dimethoxyphenyl)-pyrimidin-2-yl]-3-(3,4-methylenedioxyphenyl)-9H-pyrrolo-[3,4-b]quinolin-9-one] | 1.42 nM
9 | O=C(OCc1ccccc1)N1Cc2c(nc3ccccc3c2O)C1c1ccc2c(c1)OCO2 (racemic) [Compound 27, 1,2,3,4-Tetrahydro-2-(benzyloxycarbonyl)-3-(3,4-methylenedioxyphenyl)-9H-pyrrolo-[3,4-b]quinolin-9-one] | 3.4 nM
10 | (E)-4-[3-Oxo-3-[1,2,3,4-tetrahydro-3-(3,4-methylenedioxyphenyl)-9-methoxy-9H-pyrrolo-[3,4-b]quinolin-2-yl]-1-propenyl]benzoic acid, methyl ester [Compound 64] | 113 nM
11 | O=c1c2c([nH]c3ccccc13)[C@@H](c1ccc3c(c1)OCO3)N(c1ccc(-c3cccc(C(F)(F)F)c3)o1)C2 [Compound 50, (R)-1,2,3,4-Tetrahydro-3-(3,4-methylenedioxyphenyl)-2-[5-(3-trifluoromethylphenyl)furo-2-yl]-9H-pyrrolo-[3,4-b]quinolin-9-one] | 0.61 nM
12 | O=C(c1cc2ccc(OCCN3CCOCC3)cc2o1)N1Cc2c([nH]c3ccccc3c2=O)C1c1ccc2c(c1)OCO2 (racemic) [Compound 49, hydrochloride salt] | 1.13 nM
13 | CC(C)(C)OC(=O)N1Cc2c([nH]c3ccccc3c2=O)C1c1ccc2c(c1)OCO2 (racemic) [Compound 3, 1,2,3,4-Tetrahydro-2-(tert-butoxycarbonyl)-3-(3,4-methylenedioxyphenyl)-9H-pyrrolo-[3,4-b]quinolin-9-one] | 340 nM
14 | O=C(OCc1ccncc1)N1Cc2c([nH]c3ccccc3c2=O)C1c1ccc2c(c1)CCO2 (racemic) [Compound 53, 1,2,3,4-Tetrahydro-2-[(4-pyridinyl)methyloxycarbonyl]-3-(2,3-dihydrobenzofuran-5-yl)-9H-pyrrolo-[3,4-b]quinolin-9-one] | 5.34 nM
15 | COC(=O)c1ccc(/C=C/C(=O)N2Cc3c(n(C)c4ccccc4c3=O)C2c2ccc3c(c2)OCO3)cc1 (racemic) [Compound 63, (E)-4-[3-Oxo-3-[1,2,3,4-tetrahydro-3-(3,4-methylenedioxyphenyl)-4-methyl-9H-pyrrolo-[3,4-b]quinolin-9-one-2-yl]-1-propenyl]benzoic acid, methyl ester] | 511 nM
16 | O=C(c1ccc(Br)o1)N1Cc2c(nc3ccccc3c2O)C1c1ccc2c(c1)OCO2 (racemic) [Compound 30, 1,2,3,4-Tetrahydro-3-(3,4-methylenedioxyphenyl)-2-(5-(2-bromo)-furoyl)-9H-pyrrolo[3,4-b]quinolin-9-one] | 5.2 nM

Each compound was assayed against T1, PDEV (assay: PDE assay: inhibition of PDEV isolated from human tissue). Conditions: PDEV inhibitory activity.
Assay type: biochemical
Description: as §3, §4, §5, §1, §2

Row | Compound | IC50
17 | COc1ccc(-c2cnc(N3Cc4c([nH]c5ccccc5c4=O)C3c3ccc(OC)c(OC)c3)nc2)cc1OC (centres unmarked) [Compound 15, 1,2,3,4-Tetrahydro-[5-(3,4-dimethoxyphenyl)-pyrimidin-2-yl]-3-(3,4-dimethoxyphenyl)-9H-pyrrolo[3,4-b]quinolin-9-one] | 1160 nM
18 | Oc1c2c(nc3ccccc13)C(c1ccc3c(c1)CCO3)N(c1ncc(Br)cn1)C2 (racemic) [Compound 74] | 1.9 nM
19 | O=C(c1ccc(-c2ccccc2)o1)N1Cc2c(nc3ccccc3c2O)C1c1ccc2c(c1)OCO2 (racemic) [Compound 110] | 0.755 nM
20 | O=c1c2c([nH]c3ccccc13)C(c1ccc3c(c1)OCO3)N(c1ncc(-c3ccncc3)cn1)C2 (racemic) [Compound 57, 1,2,3,4-Tetrahydro-2-[5-(4-pyridinyl)-pyrimidin-2-yl]-3-(3,4-methylenedioxyphenyl)-9H-pyrrolo-[3,4-b]quinolin-9-one] | 0.84 nM
21 | O=C(c1cc2ccc(O)cc2o1)N1Cc2c(nc3ccccc3c2O)C1c1ccc2c(c1)OCO2 (racemic) [Compound 9, 1,2,3,4-Tetrahydro-3-(3,4-methylenedioxyphenyl)-2-(6-hydroxy-2-benzo-furoyl)-9H-pyrrolo[3,4-b]quinolin-9-one] | 0.46 nM
22 | O=C(c1ccc(-c2ccco2)o1)N1Cc2c(nc3ccccc3c2O)C1c1ccc2c(c1)OCO2 (racemic) [Compound 117] | 4.75 nM
23 | O=C(c1ccc(-c2ccsc2)o1)N1Cc2c(nc3ccccc3c2O)C1c1ccc2c(c1)OCO2 (racemic) [Compound 112] | 0.699 nM
24 | Nc1ccc(-c2ccc(C(=O)N3Cc4c([nH]c5ccccc5c4=O)C3c3ccc4c(c3)OCO4)o2)cc1 (racemic) [Compound 26, 1,2,3,4-tetrahydro-3(3,4-methylenedioxyphenyl)2-[5-(4-aminophenyl)-furoyl]-9H-pyrrolo[3,4-b]quinolin-9-one] | 1.92 nM
25 | Cc1ccc(-c2cnc(N3Cc4c([nH]c5ccccc5c4=O)C3c3ccc4c(c3)OCO4)nc2)cc1 (racemic) [Compound 7, 1,2,3,4-Tetrahydro-2-[5-(4-methylphenyl)-pyrimidin-2-yl]-3-(3,4-methylenedioxyphenyl)-9H-pyrrolo-[3,4-b]quinolin-9-one] | 0.325 nM
26 | O=c1c2c([nH]c3ccccc13)C(c1ccc3c(c1)CCO3)N(c1ncc(-c3ccccn3)cn1)C2 (centres unmarked) [Compound 61] | 1.03 nM
